In ChEMBL document CHEMBL1201862, “PubChem BioAssay data set” (2004):
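48-hour exposure; five concentrations; linearly interpolated endpoints. Here, GI50 denotes the concentration required for 50% inhibition of growth.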 Calls of active or inactive are those of the source. Cut-off read from the data, not from the text of the source: active = GI50 up to about 1.1 µM and inactive = higher.

Assays:
Assay in all cases: NCI anticancer screen, dose series, 48 h
[1] = system: HCT-116
[2] = system: CAKI-1
[3] = system: 786-0
[4] = system: CCRF-CEM
[5] = system: HL-60
[6] = system: SF-295
[7] = system: NCI-H460
[8] = system: MCF7
[9] = system: HCT-15
[10] = system: SF-539
[11] = system: NCI-H23
[12] = system: MDA-MB-231
[13] = system: HT-29
[14] = system: UACC-62
[15] = system: SN12C
[16] = system: NCI-H226
[17] = system: DU-145
[18] = system: UO-31

Row | SMILES | GI50 [1] | GI50 [2] | GI50 [3] | GI50 [4] | GI50 [5] | GI50 [6] | GI50 [7] | GI50 [8] | GI50 [9] | GI50 [10] | GI50 [11] | GI50 [12] | GI50 [13] | GI50 [14] | GI50 [15] | GI50 [16] | GI50 [17] | GI50 [18]
1 | Cc1cc(N2CCN(C)CC2)n2nc(-c3ccc(Cl)cc3)nc2n1 | 61.7 µM (inactive) | > 100 µM (inactive) | 50.7 µM (inactive) | 11.5 µM (inactive) | 27.3 µM (inactive) | 91.2 µM (inactive) | 50.7 µM (inactive) | > 100 µM (inactive) | > 100 µM | 75 µM (inactive) | > 100 µM (inactive) | > 100 µM (inactive) | 69.5 µM (inactive) | 75.3 µM (inactive) | 54.6 µM (inactive) | > 100 µM (inactive) | > 100 µM (inactive) | 
2 | COc1c(O)ccc2c1CN1CCc3cc4c(cc3C1C2)OCO4 (centres undefined) | 24 µM (inactive) | 38.3 µM (inactive) | 23.9 µM (inactive) | 30.8 µM (inactive) | 20 µM (inactive) | 29.7 µM (inactive) | 18.4 µM (inactive) | 21.6 µM (inactive) | 21.6 µM | 40 µM (inactive) | 36.2 µM (inactive) | 29.3 µM (inactive) | 32.7 µM (inactive) | 27.5 µM (inactive) | 27.7 µM (inactive) | 44.5 µM (inactive) | 21.8 µM (inactive) | 29.6 µM (inactive)
3 | CCOC(=O)c1c(N=C(S)Nc2ccc(Cl)cc2)sc2c1CCN(C)C2 | > 100 µM (inactive) | > 100 µM (inactive) | > 100 µM (inactive) | 26.9 µM (inactive) | 32.9 µM (inactive) | > 100 µM (inactive) | 94 µM (inactive) | > 100 µM (inactive) | 97.9 µM | 72.6 µM (inactive) | > 100 µM (inactive) | > 100 µM (inactive) | > 100 µM (inactive) | > 100 µM (inactive) | > 100 µM (inactive) | > 100 µM (inactive) | > 100 µM (inactive) | 83 µM (inactive)
4 | CSC(=S)Nc1cccc(C)n1 | > 100 µM (inactive) | > 100 µM (inactive) | > 100 µM (inactive) | > 100 µM (inactive) | > 100 µM (inactive) | > 100 µM (inactive) | > 100 µM (inactive) | > 100 µM (inactive) | > 100 µM | > 100 µM (inactive) | > 100 µM (inactive) | > 100 µM (inactive) | > 100 µM (inactive) | > 100 µM (inactive) | > 100 µM (inactive) | > 100 µM (inactive) | > 100 µM (inactive) | > 100 µM (inactive)
5 | CNC1Cc2c[nH]c3cccc(c23)C12C=C(C)C(=O)O2 (centres undefined) | > 100 µM (inactive) | > 100 µM (inactive) | > 100 µM (inactive) | > 100 µM (inactive) | > 100 µM (inactive) | > 100 µM (inactive) | > 100 µM (inactive) | > 100 µM (inactive) | > 100 µM | > 100 µM (inactive) | > 100 µM (inactive) | > 100 µM (inactive) | > 100 µM (inactive) | > 100 µM (inactive) | > 100 µM (inactive) | > 100 µM (inactive) | > 100 µM (inactive) | > 100 µM (inactive)
6 | NC1=Nc2ccccc2Sc2nnc(-c3ccc(Cl)cc3)n21 | 9.53 µM (inactive) | 72.4 µM (inactive) | 24 µM (inactive) | 14.8 µM (inactive) | 8.59 µM (inactive) | 29.6 µM (inactive) | 21.9 µM (inactive) | > 100 µM (inactive) | 7.16 µM | 26.2 µM (inactive) | > 100 µM (inactive) | 21.5 µM (inactive) | > 100 µM (inactive) | 61.4 µM (inactive) | 38.1 µM (inactive) | > 100 µM (inactive) | 49.2 µM (inactive) | > 100 µM (inactive)
7 | COc1cc(CNC(=O)CCCCCCCCCCSSCCCCCCCCCCC(=O)NCc2ccc(O)c(OC)c2)ccc1O | > 10 µM (inactive) | > 10 µM (inactive) | > 10 µM (inactive) | > 10 µM (inactive) | > 10 µM (inactive) | > 10 µM (inactive) | > 10 µM (inactive) | > 10 µM (inactive) | > 10 µM | > 10 µM (inactive) | > 10 µM (inactive) | > 10 µM (inactive) | > 10 µM (inactive) | > 10 µM (inactive) | > 10 µM (inactive) | > 10 µM (inactive) | > 10 µM (inactive) | 
8 | CCC1=C(C)C(=O)N/C1=C\c1[nH]c(C)c([C@H](C)CCN)c1C | 14.5 µM (inactive) | 17.1 µM (inactive) | 14.7 µM (inactive) | 23 µM (inactive) | 10 µM (inactive) | 16.5 µM (inactive) | 20.3 µM (inactive) | 15.5 µM (inactive) | 14.8 µM | 0.0944 µM (active) | 13.3 µM (inactive) | 17.4 µM (inactive) | 15.7 µM (inactive) | 17.3 µM (inactive) | 16 µM (inactive) | 17.1 µM (inactive) | 16.9 µM (inactive) | 15.8 µM (inactive)
9 | CC1=C2C(=O)c3ccccc3C(=O)[C@H]2[C@H]2CCO[C@H]2O1 | 23.8 µM (inactive) | 22.2 µM (inactive) | 18.5 µM (inactive) | 25.4 µM (inactive) | 27.7 µM (inactive) | 23 µM (inactive) | 21 µM (inactive) | 0.3 µM (active) | 25.6 µM | 22.1 µM (inactive) | 20.1 µM (inactive) | 24.2 µM (inactive) | 31.2 µM (inactive) | 20.4 µM (inactive) | 20.9 µM (inactive) | 71 µM (inactive) | 22.3 µM (inactive) | 18.1 µM (inactive)
10 | O=C1c2cccnc2S(=O)(=O)N1c1ccc(Oc2ccccc2)cc1 | > 100 µM (inactive) | 51.8 µM (inactive) | > 100 µM (inactive) | 90.4 µM (inactive) | > 100 µM (inactive) | > 100 µM (inactive) | > 100 µM (inactive) | > 100 µM (inactive) | > 100 µM | > 100 µM (inactive) | > 100 µM (inactive) | > 100 µM (inactive) | > 100 µM (inactive) | > 100 µM (inactive) | > 100 µM (inactive) | > 100 µM (inactive) | > 100 µM (inactive) | > 100 µM (inactive)
11 | Cc1ccc(/N=C/C=C(\Nc2ccc(C)cc2)c2ccc3ccccc3c2)cc1 | 0.434 µM (active) | 0.45 µM (active) | 0.757 µM (active) | 0.189 µM (active) | 0.34 µM (active) | 0.497 µM (active) | 0.489 µM (active) | 0.515 µM (active) | 0.45 µM | 1.21 µM (inactive) | 0.585 µM (active) | 0.388 µM (active) | 0.347 µM (active) | 0.331 µM (active) |  | 1.4 µM (inactive) | 1.15 µM (inactive) | 1.07 µM (active)
12 | Cc1csc2[n+]1C(=O)/C(=C\c1ccc([N+](=O)[O-])cc1)S2 | 17.8 µM (inactive) | 25.2 µM (inactive) | 24.2 µM (inactive) | 43.1 µM (inactive) | 26.2 µM (inactive) | 23.9 µM (inactive) | 22.9 µM (inactive) | 32.7 µM (inactive) |  | 36.1 µM (inactive) | 18.7 µM (inactive) | 27.3 µM (inactive) | 23.9 µM (inactive) | 19.2 µM (inactive) | 37.4 µM (inactive) | 4.1 µM (inactive) | 39 µM (inactive) | 15.3 µM (inactive)
13 | O=Cc1[nH]c(=O)[nH]c(=O)c1C(=O)O | > 100 µM (inactive) | > 100 µM (inactive) | > 100 µM (inactive) | > 100 µM (inactive) | > 100 µM (inactive) | > 100 µM (inactive) | > 100 µM (inactive) | > 100 µM (inactive) | > 100 µM | > 100 µM (inactive) | > 100 µM (inactive) | > 100 µM (inactive) | > 100 µM (inactive) | > 100 µM (inactive) | > 100 µM (inactive) | > 100 µM (inactive) | > 100 µM (inactive) | > 100 µM (inactive)
14 | CN/C(=N\N=C1/C(=O)Nc2ccccc21)SCC(=O)c1ccc(Br)cc1 | 4.53 µM (inactive) | 28.8 µM (inactive) | 5.61 µM (inactive) | 5.46 µM (inactive) | 3.48 µM (inactive) | 18.7 µM (inactive) | 10.2 µM (inactive) | 3.48 µM (inactive) | 17.2 µM | 6.38 µM (inactive) | 15.6 µM (inactive) | 5.81 µM (inactive) | 8.59 µM (inactive) | 50.1 µM (inactive) | 12.5 µM (inactive) | 25.4 µM (inactive) | 6.82 µM (inactive) | 1.04 µM (active)
15 | CC1(C)OC1COc1c2occc2cc2ccc(=O)oc12 (centres undefined) | > 100 µM (inactive) | > 100 µM (inactive) | > 100 µM (inactive) | > 100 µM (inactive) | 70.5 µM (inactive) | > 100 µM (inactive) | 40.6 µM (inactive) | > 100 µM (inactive) | > 100 µM | > 100 µM (inactive) | > 100 µM (inactive) | > 100 µM (inactive) | > 100 µM (inactive) | 33.1 µM (inactive) | > 100 µM (inactive) | > 100 µM (inactive) | > 100 µM (inactive) | 72.4 µM (inactive)
16 | COc1ccc(-c2c3c(cc4cc5c(cc24)OCO5)C(=O)OC3)cc1OC | 0.466 µM (active) | 0.571 µM (active) | 2.12 µM (inactive) | 4.06 µM (inactive) | 0.271 µM (active) | 0.239 µM (active) | 0.222 µM (active) | 4.13 µM (inactive) | 0.635 µM | 3.5 µM (inactive) | 6.98 µM (inactive) | 3.02 µM (inactive) | 0.215 µM (active) | 0.507 µM (active) | 0.488 µM (active) | 0.34 µM (active) | 2.7 µM (inactive) | 3.15 µM (inactive)
